Data reported in patent US11739098B2 (BRISTOL-MYERS SQUIBB COMPANY, priority 2017, dated 2023).

How the values were obtained:
Format in all cases: cell-based
human TLR9 = target: T1, human TLR9 (Homo sapiens, UniProt Q9NR96); assay: TLR9 inhibition reporter assay (HEK-Blue cells, SEAP reporter, ODN2006 stimulation); details: HEK-Blue cells overexpressing human TLR9, SEAP reporter, ODN2006 5 nM
T1 construct: host or cells: HEK-Blue cells (HEK293-derived reporter line)
T1 sequence (Q9NR96 26-1032): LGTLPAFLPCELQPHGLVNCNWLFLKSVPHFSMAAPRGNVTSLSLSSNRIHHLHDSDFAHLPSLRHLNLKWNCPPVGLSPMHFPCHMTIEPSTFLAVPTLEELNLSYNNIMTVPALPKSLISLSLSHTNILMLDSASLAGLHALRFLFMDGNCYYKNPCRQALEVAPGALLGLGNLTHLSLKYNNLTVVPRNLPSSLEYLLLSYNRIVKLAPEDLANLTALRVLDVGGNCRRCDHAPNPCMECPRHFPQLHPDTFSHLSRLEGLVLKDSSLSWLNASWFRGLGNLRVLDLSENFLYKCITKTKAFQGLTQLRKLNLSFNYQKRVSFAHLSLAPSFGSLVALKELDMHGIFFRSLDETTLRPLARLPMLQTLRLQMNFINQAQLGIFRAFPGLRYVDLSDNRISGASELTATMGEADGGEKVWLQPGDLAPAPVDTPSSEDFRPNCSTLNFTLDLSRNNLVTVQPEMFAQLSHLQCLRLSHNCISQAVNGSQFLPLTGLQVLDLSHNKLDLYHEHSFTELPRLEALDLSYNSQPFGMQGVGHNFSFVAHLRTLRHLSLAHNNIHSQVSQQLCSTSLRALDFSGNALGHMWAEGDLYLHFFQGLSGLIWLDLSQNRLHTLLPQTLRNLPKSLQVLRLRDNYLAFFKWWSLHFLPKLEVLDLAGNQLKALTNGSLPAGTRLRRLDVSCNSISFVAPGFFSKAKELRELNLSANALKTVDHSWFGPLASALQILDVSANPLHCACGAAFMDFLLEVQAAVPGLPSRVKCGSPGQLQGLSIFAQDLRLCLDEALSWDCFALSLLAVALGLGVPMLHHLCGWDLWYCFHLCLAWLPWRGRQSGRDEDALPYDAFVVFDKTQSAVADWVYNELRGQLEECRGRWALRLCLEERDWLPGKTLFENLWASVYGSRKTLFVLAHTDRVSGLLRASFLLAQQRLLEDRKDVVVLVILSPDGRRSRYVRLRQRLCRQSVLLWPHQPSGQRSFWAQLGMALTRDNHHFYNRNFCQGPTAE
Method in brief: (§1)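 Agonists (final): TLR7 gardiquimod 7.5 μM; TLR8 R848 15.9 μM; TLR9 ODN2006 5 nM. HEK-Blue reporter cells, 30 min RT compound pre-incubation, 0.05 nM–50 μM dose range, 22 h at 37 °C, colorimetric SEAP detection medium. % inhibition relative to agonist+DMSO and known-inhibitor wells.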

human TLR7 = target: T2, human TLR7 (Homo sapiens, UniProt Q9NYK1); assay: TLR7 inhibition reporter assay (HEK-Blue cells, SEAP reporter, gardiquimod stimulation); details: HEK-Blue cells overexpressing human TLR7, SEAP reporter, gardiquimod 7.5 μM
T2 construct: host or cells: HEK-Blue cells (HEK293-derived reporter line)
T2 sequence (Q9NYK1 27-1049): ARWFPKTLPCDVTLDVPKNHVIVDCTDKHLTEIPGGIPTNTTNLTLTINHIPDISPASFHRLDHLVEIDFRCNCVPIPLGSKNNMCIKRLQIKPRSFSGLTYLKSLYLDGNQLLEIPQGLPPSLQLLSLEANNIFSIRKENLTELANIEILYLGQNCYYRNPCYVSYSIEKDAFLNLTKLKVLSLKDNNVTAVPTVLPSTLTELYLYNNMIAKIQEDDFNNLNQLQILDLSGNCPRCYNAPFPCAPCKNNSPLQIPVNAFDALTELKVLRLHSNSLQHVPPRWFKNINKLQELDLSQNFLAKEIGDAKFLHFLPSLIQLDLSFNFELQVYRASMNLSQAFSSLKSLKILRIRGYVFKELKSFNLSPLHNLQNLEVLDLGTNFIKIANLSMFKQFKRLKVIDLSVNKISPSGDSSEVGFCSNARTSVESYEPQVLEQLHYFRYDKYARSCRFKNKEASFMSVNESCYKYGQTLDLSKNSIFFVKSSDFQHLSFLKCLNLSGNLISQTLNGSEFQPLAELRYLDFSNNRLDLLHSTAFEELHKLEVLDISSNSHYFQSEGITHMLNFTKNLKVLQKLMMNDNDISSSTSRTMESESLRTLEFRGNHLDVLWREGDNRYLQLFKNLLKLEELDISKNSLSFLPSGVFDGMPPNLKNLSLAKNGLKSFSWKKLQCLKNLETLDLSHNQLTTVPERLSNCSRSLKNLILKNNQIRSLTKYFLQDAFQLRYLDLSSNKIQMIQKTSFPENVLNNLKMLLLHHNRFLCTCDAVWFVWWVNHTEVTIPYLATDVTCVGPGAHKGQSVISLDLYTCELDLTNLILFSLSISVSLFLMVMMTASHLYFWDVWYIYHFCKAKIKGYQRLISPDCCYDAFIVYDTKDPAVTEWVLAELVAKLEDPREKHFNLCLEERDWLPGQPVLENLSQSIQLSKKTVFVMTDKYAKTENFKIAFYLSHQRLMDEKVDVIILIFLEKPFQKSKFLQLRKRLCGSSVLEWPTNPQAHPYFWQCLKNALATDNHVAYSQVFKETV
Method in brief: as §1

human TLR8 = target: T3, human TLR8 (Homo sapiens, UniProt Q9NR97); assay: TLR8 inhibition reporter assay (HEK-Blue cells, SEAP reporter, R848 stimulation); details: HEK-Blue cells overexpressing human TLR8, SEAP reporter, R848 15.9 μM
T3 construct: host or cells: HEK-Blue cells (HEK293-derived reporter line)
T3 sequence (Q9NR97 27-1041): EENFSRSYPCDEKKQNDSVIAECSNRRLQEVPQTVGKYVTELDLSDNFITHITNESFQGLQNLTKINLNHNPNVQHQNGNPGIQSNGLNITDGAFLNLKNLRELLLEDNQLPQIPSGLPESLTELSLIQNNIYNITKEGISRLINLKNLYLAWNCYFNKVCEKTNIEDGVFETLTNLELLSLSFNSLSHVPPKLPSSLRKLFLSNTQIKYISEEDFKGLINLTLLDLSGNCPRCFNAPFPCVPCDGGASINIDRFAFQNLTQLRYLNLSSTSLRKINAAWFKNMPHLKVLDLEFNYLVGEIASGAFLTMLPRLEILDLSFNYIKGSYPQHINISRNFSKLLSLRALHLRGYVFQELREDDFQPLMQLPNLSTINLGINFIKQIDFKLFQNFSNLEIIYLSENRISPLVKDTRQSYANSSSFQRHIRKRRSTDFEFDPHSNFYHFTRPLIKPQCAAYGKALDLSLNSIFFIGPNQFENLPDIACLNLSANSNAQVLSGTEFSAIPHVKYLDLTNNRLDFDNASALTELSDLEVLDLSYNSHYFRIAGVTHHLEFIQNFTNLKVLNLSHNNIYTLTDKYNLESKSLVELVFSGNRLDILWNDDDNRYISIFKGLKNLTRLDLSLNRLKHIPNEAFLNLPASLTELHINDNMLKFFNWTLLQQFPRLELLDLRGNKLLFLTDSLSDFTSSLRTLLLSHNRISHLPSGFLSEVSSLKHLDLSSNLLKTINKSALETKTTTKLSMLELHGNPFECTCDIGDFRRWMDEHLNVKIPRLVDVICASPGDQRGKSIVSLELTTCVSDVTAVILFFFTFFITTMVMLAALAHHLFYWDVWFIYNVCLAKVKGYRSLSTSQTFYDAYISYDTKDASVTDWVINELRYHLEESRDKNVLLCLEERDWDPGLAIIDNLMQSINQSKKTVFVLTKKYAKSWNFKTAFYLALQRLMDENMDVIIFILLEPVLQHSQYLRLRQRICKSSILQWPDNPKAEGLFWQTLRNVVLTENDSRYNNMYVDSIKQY
Method in brief: as §1

| IC50 (human TLR9) [nM] | IC50 (human TLR7) [nM] | IC50 (human TLR8) [nM] | Structure (SMILES) |
| --- | --- | --- | --- |
| 100 to 1000 | < 100 | 100 to 1000 | Cc1cn2cc(-c3[nH]c4ccc(C5CCN(C(=O)CN(C)C)CC5)cc4c3C(C)C)ccc2n1 [Example 523, 2-(dimethylamino)-1-(4-(3-isopropyl-2-(2-methylimidazo [1,2-a]pyridin-6-yl)-1H-indol-5-yl)piperidin-1-yl)ethan-1-one] |
| 1000 to 50000 | < 100 | < 100 | Cc1cc2nnnn2cc1-c1[nH]c2ccc(C3CCN(Cc4ncn(C)n4)CC3)cc2c1C(C)C [Example 886, 6-(3-isopropyl-5-(1-((1-methyl-1H-1,2,4-triazol-3-yl)methyl)piperidin-4-yl)-1H-indol-2-yl)-7-methyltetrazolo[1,5-a]pyridine] |
| 1000 to 50000 | < 100 | < 100 | Cc1cc(-c2[nH]c3ccc(C4CCN(C(=O)CN(C)C)CC4)cc3c2C(C)C)cc2ncnn12 [Example 536, 2-(dimethylamino)-1-(4-(3-isopropyl-2-(5-methyl-[1,2,4]triazolo[1,5-a]pyridin-7-yl)-1H-indol-5-yl)piperidin-1-yl)ethan-1-one] |
| 100 to 1000 | < 100 | 100 to 1000 | CNCCN1CCC(c2ccc3[nH]c(-c4ccc5nc(C)cn5c4)c(C(C)C)c3c2)CC1 [Example 676, 2-(4-(3-isopropyl-2-(2-methylimidazo[1,2-a]pyridin-6-yl)-1H-indol-5-yl)piperidin-1-yl)-N-methylethan-1-amine] |

More lines, now with the values behind:

| Structure (SMILES) | IC50 (human TLR9) [nM] | IC50 (human TLR7) [nM] | IC50 (human TLR8) [nM] |
| --- | --- | --- | --- |
| Cc1cc2nnnn2cc1-c1[nH]c2ccc(C3CCN(Cc4ccn(C)n4)CC3)cc2c1C(C)C [Example 887, 6-(3-isopropyl-5-(1-((1-methyl-1H-pyrazol-3-yl)methyl)piperidin-4-yl)-1H-indol-2-yl)-7-methyltetrazolo[1,5-a]pyridine] | 1000 to 50000 | < 100 | < 100 |
| COc1cc(-c2[nH]c3ccc(C4CCN(C5COC5)CC4)cc3c2C(C)C)nn2ncnc12 [Example 732, 6-(3-isopropyl-5-(1-(oxetan-3-yl)piperidin-4-yl)-1H-indol-2-yl)-8-methoxy-[1,2,4]triazolo[1,5-b]pyridazine] | 1000 to 50000 | < 100 | < 100 |
| CCc1c(-c2ccnc3[nH]cc(C(C)C)c23)[nH]c2ccc(C3CCNCC3)cc12 [Example 221, 4-(3-ethyl-5-(piperidin-4-yl)-1H-indol-2-yl)-3-isopropyl-1H-pyrrolo[2,3-b]pyridine] | 100 to 1000 | 100 to 1000 | 1000 to 50000 |
| CC(C)c1c(-c2ccnc3c2ccn3S(C)(=O)=O)[nH]c2ccc(C3CCNCC3)cc12 [Example 3, 4-(3-isopropyl-5-(piperidin-4-yl)-1h-indol-2-yl)-1-(methylsulfonyl)-1H-pyrrolo[2,3-b]pyridine] | 100 to 1000 | 100 to 1000 | < 100 |
| CC(C)c1c(-c2ccnc3[nH]ncc23)[nH]c2ccc(C3CCN(C(=O)CN4CCN(c5ccncc5)CC4)CC3)cc12 [Example 591, 1-(4-(3-isopropyl-2-(1H-pyrazolo[3,4-b]pyridin-4-yl)-1H-indol-5-yl)piperidin-1-yl)-2-(4-(pyridin-4-yl)piperazin-1-yl)ethan-1-one] | 100 to 1000 | < 100 | < 100 |
| CCc1c(-c2ccnc3[nH]cc(Cl)c23)[nH]c2ccc(C3CCN(C4CCN(C(C)C)CC4)CC3)cc12 [Example 842, 3-chloro-4-(3-ethyl-5-(1′-isopropyl-[1,4′-bipiperidin]-4-yl)-1H-indol-2-yl)-1H-pyrrolo[2,3-b]pyridine] | 100 to 1000 | 100 to 1000 | < 100 |
| CNC(=O)CN1CCC(c2ccc3[nH]c(-c4cc(F)c5nccn5c4)c(CC(F)F)c3c2)CC1 [Example 411, 2-(4-(3-(2,2-difluoroethyl)-2-(8-fluoroimidazo[1,2-a]pyridin-6-yl)-1H-indol-5-yl)piperidin-1-yl)-N-methylacetamide] | 1000 to 50000 | < 100 | 100 to 1000 |
